Data as given in US20160199364A1, “SEIZURE TREATMENT COMPOSITIONS AND METHODS” (Creighton University, priority 2015, published 2016).

Assays:
[1] = tested on: spontaneous recurrent seizures in epileptic Kv1.1 knockout (KO) mice; assay: Spontaneous recurrent seizures by 24 hr video-EEG (seizure incidence, seizure burden index); format: in vivo, mouse
Procedure: (§1) Dietary and pharmacological treatments. […] For dietary experiments involving Kv1.1WT and Kv1.1KO mice, drinking water contained either 0.0323% DMSO vehicle or GW9662 ([…]) to obtain an average dosage of 1.062±0.038 mg/kg/day (n=18). There was no difference in the average daily water consumption or resulting GW9662 dosage between experimental groups (see FIG. 2H). […] Three hours after the last pioglitazone injection, mice were euthanized and brains processed for western blot, electrophysiology, or mitochondria experiments.
Intracranial electroencephalography electrode implantation and seizure analysis. On P27, mice underwent surgical implantation of electrodes. Mice were maintained under isoflurane anesthesia and normothermic conditions. One ground (1.5 mm anterior lamba, 1.5 mm lateral) and two subdural (1 mm posterior Bregma, 1.5 mm bilateral) intracranial cortical electroencephalographic (iEEG) electrodes were implanted, secured, and attached to a headmount. […] EEG recordings were acquired with a 250 Hz sampling rate and band-pass filtered between 0.5 and 40 Hz. During seizure monitoring, mice were single-housed in hexagon cages. EEG recordings were imported into Spike2 v6-7 software (Cambridge Electronic Design, Cambridge, England) for initial seizure identification using time-frequency analysis. […] Incidence and severity of each seizure was scored for the first 15 minutes of each hour during the time period of highest seizure occurrence for Kv1.1KO mice (00:00-08:00). Seizure severity was scored using a modified Racine scale: 0—normal; 1—myoclonic jerk or “pop;” 2—side-to-side head movement; 3—forelimb/hindlimb clonus, tail extension, a single rearing event; 4—continuous rearing and falling; 5—severe tonic-clonic seizures. To weigh the incidence and severity of seizures, seizure burden index (SBI) scores were calculated using the equation: SBI=[Σ(σiγi)]/ε, where σ indicates the severity; i indicates each stage of seizure (1-5); γ is the incidence; and ε indicates the total number of epochs scored.

Body weight = format: in vivo, mouse; conditions: pioglitazone 10 mg/kg/day i.p., five days; Kv1.1WT or Kv1.1KO mice
[2] = tested on: mitochondrial respiratory complex I (MRCI); assay: Oxygen polarography of isolated cortical mitochondria after in vivo treatment; set-up: species or system mouse; conditions: Kv1.1KO mice treated in vivo (pioglitazone 10 mg/kg/day i.p. or KD)
Procedure: as §1
Mitochondrial isolation and oxytherm polarography. Mice were anesthetized with isoflurane and cortical tissue was quickly micro-dissected on ice. Tissue was homogenized in isolation buffer (5×V/V in mM: 215 mannitol, 75 sucrose, 1 EGTA 20 HEPES and 0.1% BSA, pH 7.2 adjusted with KOH) and mitochondria were isolated using differential centrifugation. Isolated mitochondria were resuspended in isolation buffer without EGTA. Protein concentrations were determined with Bradford assay. […] Oxygen polarography was measured using a standard Clark-type electrode (Hanstech Instruments, Ltd., Norfolk, England). […] Only samples with a respiratory control ratio greater than 4 were analyzed. Unbiased assessment of the rate of oxygen consumption was determined using computer-generated line of best-fit algorithm and nmol of oxygen mg^−1 min^−1 was calculated.

[3] = tested on: hippocampal mossy fiber-CA3 synapse and CA3 network; assay: Acute hippocampal slice multielectrode array recordings after in vivo treatment; set-up: species or system mouse; conditions: Kv1.1KO mice treated in vivo (pioglitazone 10 mg/kg/day i.p. or KD), hippocampal slices
Procedure: as §1
Acute hippocampal slice preparation and multielectrode array recordings. […] Spontaneous and evoked extracellular potentials were recorded with Mobius v2 software (Witwerx Inc., Tustin, Calif., USA) and acquired at a 20 kHz sampling rate with a bandwidth of 0.1 Hz-10 kHz. Post-synaptic field potentials and short-term plasticity of the mossy fiber (MF)-CA3 synapse were obtained by successive paired stimulations (50 ms inter-stimulus interval, 50% maximal intensity) of Dentate granule cell mossy fibers located in the hilar region and recorded in CA3 stratum lucidum. Paired pulse facilitation was calculated by dividing the slope (10-90%) of stimulation 2 by the slope of stimulation 1 and presented as the percent above stimulation 1. […]

SMILES: O=C(Nc1ccccc1)c1cc([N+](=O)[O-])ccc1Cl [GW9662]
- KD anti-seizure efficacy ([1]; GW9662 ~1 mg/kg/day co-administered throughout KD treatment, Kv1.1KO mice): prevented
- Kv1.1KO seizures (worsening) ([1]; GW9662 ~1 mg/kg/day in drinking water, Kv1.1KO mice): did not worsen
- induction of spontaneous seizures in WT mice ([1]; GW9662 ~1 mg/kg/day in drinking water, WT mice): did not

SMILES: CCc1ccc(CCOc2ccc(CC3SC(=O)NC3=O)cc2)nc1 (stereo not shown) [pioglitazone]
- body weight (Body weight): did not change
- improvement of mitochondrial respiration (MRCI State III) [2]: ~80%
- attenuation of HFO (high frequency oscillation) incidence ([3]; CA3 network): ~60%
- increase of mossy fiber paired pulse facilitation [3]: ~45%
